Measurements as given in patent publication US9546201B2, “MUC-1 cytoplasmic domain peptides as inhibitors of cancer” (DANA-FARBER CANCER INSTITUTE, INC., priority 2008, dated 2017).
Where a SMILES comes first, the peptide text is derived from it. Where no end group is shown, it is not given here. [ ]: non-standard residue; d: D form.

Key:
His-MUC1-CD oligomers = target: T1, His-MUC1-CD oligomers (Homo sapiens, UniProt P15941); test: Oligomer formation of purified His-MUC1-CD (non-reducing SDS-polyacrylamide gel, anti-MUC1-C immunoblot); assay type: biochemical; details: 200 μM peptide, 1 h at room temperature
T1 sequence (P15941 1184-1255): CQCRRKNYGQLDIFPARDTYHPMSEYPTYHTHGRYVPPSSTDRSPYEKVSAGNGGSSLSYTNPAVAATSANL
Procedure: (§1) FIGS. 1A-D. MUC1/CQC peptide blocks MUC1 oligomerization. (FIG. 1A) Schematic representation of the MUC1-C subunit and the 72-amino acid sequence of MUC1-CD (SEQ ID NO: 1) are shown. The N-terminal 15 amino acids (shaded sequence; SEQ ID NO: 3) MUC1/CQC (SEQ ID NO: 63) and mutated MUC1/AQA (SEQ ID NO: 60) peptides were synthesized with the poly-dArg transduction domain. (FIG. 1B) His-MUC1-CD (1.4 mg/ml) was immobilized on a sensor chip in a BIAcore. MUC1/CQC was injected over the chip at 10 μM. Raw binding data were analyzed by BIAevaluation software version 3.0 and fit to a 1:1 Languir binding model. (FIG. 1C) Purified His-MUC1-CD (1.5 mg/ml) was incubated with PBS, 200 μM MUC1/CQC or 200 μM MUC1/AQA for 1 h at room temperature. The proteins were separated in a non-reducing SDS-polyacrylamide gel and analyzed by immunoblotting with anti-MUC1-C. (FIG. 1D) 293 cells were transiently transfected to express an empty vector or GFP-MUC1-CD and Flag-MUC1-CD. At 48 h after transfection, the cells were treated with 5 μM MUC1/CQC or MUC1/AQA for 3 d. The cells were then harvested for immunoblotting with anti-MUC1-C (left panel). […]
The MUC1 cytoplasmic domain (MUC1-CD) contains a CQC motif that is necessary for the formation of oligomers and nuclear localization (Leng et al., 2007). […] Purified His-tagged MUC1-CD forms oligomers as detected by electrophoresis in polyacrylamide gels (FIG. 1C). […]

[1] = target: T2, complexes of GFP-MUC1-CD and Flag-MUC1-CD (Homo sapiens, UniProt P15941); test: Coprecipitation of GFP-MUC1-CD and Flag-MUC1-CD in transfected 293 cells; assay type: cell-based; details: 5 μM peptide for 3 d
T2 construct: expressed in transfected cells; host or cells: 293 cells
T2 sequence (P15941 1184-1255 limits assumed): T1 sequence (P15941 1184-1255)
Procedure: as §1, with “anti-MUC1-C.” for “anti-MUC1-C. (FIG. 1D) 293 cells were transiently transfected to express an empty vector or GFP-MUC1-CD and Flag-MUC1-CD. At 48 h after transfection, the cells were treated with 5 μM MUC1/CQC or MUC1/AQA for 3 d. The cells were then harvested for immunoblotting with anti-MUC1-C (left panel).”
Whole cell and nuclear lysates were prepared as described (Leng et al., 2007). […] Immunoprecitates and soluble proteins were analyzed by immunoblotting with anti-His (Cell Signaling Technology, Danvers, Mass.), anti-GFP (Millipore, Danvers, Mass.), anti-Flag, anti-MUC1-C (Abl; NeoMarkers, Fremont, Calif.), anti-lamin B (EMD, La Jolla, Calif.) or anti-β-actin (Sigma). Reactivity was detected with horseradish peroxidase-conjugated second antibodies and chemiluminescence. […]

ZR-75-1 cells = test: Cell cycle distribution, apoptosis and necrosis by flow cytometry, ZR-75-1; assay type: cell-based, human; details: 5 μM; for induction of necrosis: detectable at 72 h, more prominent at 96 h
Procedure: (§2) FIGS. 3A-D. MUC1/CQC peptide induces S phase arrest and necrosis. ZR-75-1 (FIGS. 3A-B) and MCF-7 (FIGS. 3C-D) cells were treated with 5 μM MUC1/CQC or MUC1/AQA for 3 and 4 d. Cells were fixed and analyzed for cell cycle distribution by flow cytometry (FIGS. 3A and 3C). The percentage of cells in G1, S and G2/M phases is included in the panels. Cells were also stained with propidium iodide and analyzed by flow cytometry for necrosis (FIGS. 3B and 3D). The percentage of necrotic cells is included in the panels.
(§3) Cells were harvested, washed with PBS, fixed with 80% ethanol, and incubated in PBS containing 40 μg/ml RNAse and 40 μg/ml propidium iodide for 30 min at 37° C. Cell cycle distribution was determined by flow cytometry. Sub-G1 DNA content was assessed by staining ethanol-fixed and citrate buffer-permeabilized cells with propidium iodide and monitoring by flow cytometry as described (Yin et al., 2007). For assessment of necrosis, cells were incubated with 1 μg/ml propidium iodide/PBS for 5 min at room temperature and then monitored by flow cytometry as described (Yin et al., 2007).
(§4) To determine whether the MUC1/CQC peptide affects growth, ZR-75-1 cells were treated with 5 μM MUC1/CQC for 72 h and monitored for cell cycle distribution. […] These findings indicate that the MUC1/CQC peptide inhibits growth and induces necrosis of human breast cancer cells.

MCF-7 cells = test: Cell cycle distribution and necrosis by flow cytometry, MCF-7; assay type: cell-based, human; details: MCF-7, 5 μM, 3 and 4 d
Procedure: as §2, §3, §4

[2] = test system: multiple carcinoma cell lines; test: Inventors' recent studies of MUC1 C-terminal peptides on carcinoma cell lines; assay type: cell-based; details: L-amino acid peptide
Text: However, these MUC1-C-terminal peptides consists of L-amino acids. […] Consequently, they have generated an all-dextro form of the above described shorter MUC1 C-terminal peptide, in which the L-amino acids were changed to D-amino acids (GO-203). Moreover, to determine the minimum amino acid residues from the MUC1-C-terminal region that are required to retain the cell killing activity, they have also generated many different versions of GO-203 as described in FIG. 8.

Compound | oligomer formation of His-MUC1-CD (His-MUC1-CD oligomers) | interaction between Flag-MUC1-CD and GFP-MUC1-CD [1] | sub-G1 DNA content (apoptosis) (ZR-75-1 cells) | cell cycle distribution (ZR-75-1 cells; 72 h) | S phase population (ZR-75-1 cells; 96 h) | induction of necrosis (ZR-75-1 cells) | cell cycle distribution (MCF-7 cells) | necrosis (MCF-7 cells) | growth of carcinoma cell lines [2]
CC[C@H](C)[C@H](NC(=O)[C@H](CC(=O)O)NC(=O)[C@H](CC(C)C)NC(=O)[C@H](CCC(N)=O)NC(=O)CNC(=O)[C@H](Cc1ccc(O)cc1)NC(=O)[C@H](CC(N)=O)NC(=O)[C@H](CCCCN)NC(=O)[C@H](CCCNC(=N)N)NC(=O)[C@H](CCCNC(=N)N)NC(=O)[C@H](CS)NC(=O)[C@H](CCC(N)=O)NC(=O)[C@H](CS)NC(=O)[C@@H](CCCNC(=N)N)NC(=O)[C@@H](CCCNC(=N)N)NC(=O)[C@@H](CCCNC(=N)N)NC(=O)[C@@H](CCCNC(=N)N)NC(=O)[C@@H](CCCNC(=N)N)NC(=O)[C@@H](CCCNC(=N)N)NC(=O)[C@@H](CCCNC(=N)N)NC(=O)[C@@H](CCCNC(=N)N)NC(=O)[C@H](N)CCCNC(=N)N)C(=O)N[C@@H](Cc1ccccc1)C(=O)N1CCC[C@H]1C(=O)O [MUC1/CQC] (H-[dR][dR][dR][dR][dR][dR][dR][dR][dR]CQCRRKNYGQLDIFP-OH; N-terminus and C-terminus assumed) | substantially decreased oligomer formation | disruption of the interaction | little if any accumulation of cells with sub-G1 DNA content | substantial arrest in S phase | S phase population was decreased | induction of necrosis | arrest of growth in S phase | induction of necrosis | active in inhibiting growth of multiple carcinoma cell lines
MUC1/AQA: control peptide in which the CQC motif was altered to AQA, with poly-dArg transduction domain; SEQ ID NO: 60 ([dR][dR][dR][dR][dR][dR][dR][dR][dR]AQARRKNYGQLDIFP) [reference compound] | little if any effect | no apparent effect | – | – | – | not | – | – | –
